System: adult human white matter progenitor cells (WMPCs)
Assay: Tyrosine phosphatase inhibition: oligodendrocyte differentiation of cultured WMPCs (A2B5/O4/BrdU immunocytochemistry)
Format: cell-based
Method: WMPCs were distributed onto 12-well plates coated with poly-L-ornithine and fibronectin at 5×10^4 cells/ml in DMEM/F12/N1 supplemented with 10 ng/ml bFGF (Sigma), 10 ng/ml PDGF-AA (Sigma), and 2 ng/ml NT3 (R&D Systems). Stock solutions of 1 μM bpV(phen) (potassium bisperoxo (1,10-phenanthroline) oxovanadate (V); Calbiochem) were prepared before each use. Cells were exposed to concentrations of 0, 1, 5, 10, and 25 ng/ml of bV(phen) immediately upon plating, and every 2 days thereafter for 7 day in vitro.
Cultures were exposed continuously to 10 μg/ml BrdU beginning 24 hours before fixation. After 7 days in vitro, A2B5 and O4 were immunolabeled as previously described (Roy et al., “Identification, Isolation, and Promoter-defined Separation of Mitotic Oligodendrocyte Progenitor Cells from the Adult Human Subcortical White Matter,” J. Neurosci 19:9986-95 (1999), which is hereby incorporated by reference in its entirety). For multiple antigen labeling, O4 and A2B5 were localized on live cells that were then fixed with 4% paraformaldehyde and immunostained for BrdU. O4 supernatant was used at a dilution of 1:100 and monoclonal antibody A2B5 supernatant (clone 105, American Type Culture Collection) was used in a 1:1 ratio with DMEM/F12/N, both for 40 minutes at 4° C. Rat anti-BrdU antibody (Harlan) was used at a dilution of 1:200. Fixed cultures were counterstained with DAPI (10 ng ml; Molecular Probes). The number of A2B5 and O4 stained and unstained cells were counted in 10 randomly chosen fields at each dosage level, from individual replicate samples (n=4). Statistical significance was assessed by one-way repeated measures analysis of variance (ANOVA), followed by Tukey's multiple comparisons test (GraphPad Prism 3.0, p<0.05).
Due to the high expression of the tyrosine phosphatase receptor RTPβ/ζ in WMPCs, the effect of tyrosine phosphatase inhibition on the differentiation of WMPCs was assessed. bpV(phen), a known potent inhibitor of tyrosine phosphatase activity, was used to induce inhibition (Posner et al., “Peroxovanadium Compounds. A New Class of Potent Phosphotyrosine Phosphatase Inhibitors Which Are Insulin Mimetics,” J Biol Chem 269: 4596-4604 (1994); Bevan et al., “Selective Activation of the Rat Hepatic Endosomal Insulin Receptor Kinase. Role for the Endosome in Insulin Signaling,” J Biol Chem 270: 10784-10791 (1995); Faure et al., “Arrest at The G2/M Transition of the Cell Cycle by Protein-Tyrosine Phosphatase Inhibition Studies on a Neuronal and a Glial Cell Line,” J Cell Biochem 59: 389-401 (1995), which are hereby incorporated by reference in their entirety). […] Statistical significance was first detected at 1 ng/ml bpV(phen) in the A2B5 positive population and 10 ng ml bpV(phen) in the O4 positive population. The O4/A2B5 ratio rose drastically from under 10 percent to 70 percent in response to 25 ng/ml treatment with bpV(phen) (FIG. 1E).

[1] = 7 days in vitro, doses 0, 1, 5, 10, 25 ng/ml
[2] = between dosage levels 0-25 ng/ml, 7 days in vitro

With `O.O.O.OO.OO.[K+].[OH-].[V].c1cnc2c(c1)ccc1cccnc12` [bpV(phen), potassium bisperoxo (1,10-phenanthroline) oxovanadate (V)] the “percentage of O4+ cells” value (25 ng ml, 7 days in vitro, n=4 patients, untreated 20±8.4%) was 54±17.6%, the “percentage of progenitor A2B5+ cells” value (25 ng/ml, 7 days in vitro, n=4 patients, untreated 15±2.2%) was 4±0.5% and the O4/A2B5 ratio (25 ng/ml, 7 days in vitro, untreated under 10 percent) was 70%. For the same compound, the “concentration at which statistical significance was first detected, A2B5 positive population” value [1] was 1 ng/mL, the “concentration at which statistical significance was first detected, O4 positive population” value [1] was 10 ng·mL and the “effect on WMPC expansion and differentiation” value (WMPCs exposed to the RTP inhibitor) was “ceased expansion and differentiated as oligodendrocytes”. The “number of A2B5+ BrdU+ cells” value [2] was “unchanged” and the total cell number [2] was “unchanged”.

— patent US8945921B2, “Modulating the production of neurons and/or oligodendrocytes from white matter progenitor cells” (Cornell Research Foundation, Inc., priority 2003, dated 2015)
